Source: patent publication US20250346943A1, “DEGRADER COMPOUNDS OF QSOX1 mRNA” (UNIVERSITY OF FLORIDA RESEARCH FOUNDATION, INCORPORATED, priority 2022, published 2025)

Tests used:
[1] = biological target: QSOX1 5′UTR hairpin (model of the QSOX1-a binding site); experiment: In vitro binding by fluorescence polarization, Cy5-labeled WT RNA; set-up: species or system human
Procedure: In Vitro Binding by Measuring Changes in Fluorescence Polarization. Cy5-labeled RNA was folded by heating at 95° C. for 2 min in 1× Folding Buffer and cooled on ice. Serial dilutions of F1 (200 to 0.4 μM, 1:1 dilutions) were prepared in 1× Folding Buffer with 4% (w/v) bovine serum albumin (BSA) with constant DMSO concentration (2% v/v). The compound solutions (10 μL) were added to a well of non-binding 384-well plate (Corning). An equal volume of folded RNA was adding to each well with a final concentration of 50 nM. The samples were incubated at room temperature for 30 min, and then fluorescence polarization was measured with a Molecular Devices SpectraMax M5 plate reader with an excitation wavelength of 640 nm and an emission wavelength of 680 nm.

[2] = system: WT model of the QSOX1-a hairpin structure; experiment: Optical melting, WT model RNA; assay type: binding, human
Procedure: (§1) Optical Melting Experiments. The thermal stability of WT and mutant model RNAs in the presence and absence of F1-Amide was measured by optical melting. The RNA ([…]) was prepared in 1× Melting Buffer (8 mM Na2HPO4, pH 7, 10 mM NaCl, and 1 mM EDTA) and heated to 95° C. followed by cooling on ice. F1-Amide was added to the final concentration of 2 mM; an equal volume of DMSO was added to the vehicle sample. The absorbance of the solution at 260 nm was measured by a Beckman Coulter DU800 spectrophotometer as a function of temperature, from 12° C. to 85° C. at a rate of 1° C./min. The background absorbance of buffer with DMSO or compound was subtracted before fitting the curve with MeltWin (v3.5)^7 to determine the melting temperature (Tm) and the Gibbs free energy (ΔG37° C.).

[3] = system: mutant RNA (U-bulge mutated to U/A base pair); experiment: Optical melting, mutant model RNA; assay type: binding
Procedure: as §1

[4] = system: wild type (WT) QSOX1 5′ UTR RNA hairpin; experiment: In vitro Chem-CLIP and competitive Chem-CLIP with Cy5-labeled WT RNA; assay type: binding, human; conditions: constant concentration of F1, increasing competitor
Procedure: In Vitro Chemical-Crosslinking and Isolation by Pull-down (Chem-CLIP) with Fluorescently Labeled RNA. Cy5-labeled RNA (100 μL, 2 μM) was folded by heating at 95° C. for 2 min in 1× Folding Buffer and cooled on ice. The RNA was then mixed with F1 at the indicated concentrations. The sample was irradiated with UV light (365 nm) for 15 min and then added to 100 μL of azide-disulfide agarose beads (Click Chemistry Tools, 1238-2) pre-washed with 200 μL of 25 mM HEPES, pH 7.0. A click reaction solution was prepared by mixing 30 μL of 250 mM sodium ascorbate, 30 μL of 10 mM CuSO4, and 30 μL of 50 mM THPTA, which was added to the sample. The sample was incubated while rotating at 37° C. for 2 h, briefly centrifuged, and then the supernatant was decanted. The beads were washed six times with 1× Washing Buffer (10 mM Tris-HCl, pH 7, 4 M NaCl, 1 mM EDTA, and 0.05% (v/v) Tween-20) following by incubation with 1× Releasing Buffer (50 mM TCEP and 100 mM K2CO3) at 37° C. for 30 min. An equivalent of iodoacetamide (200 mM) was added to the sample, which was incubated at 37° C. for an additional 30 min. The sample was briefly centrifuged and supernatant containing RNA was carefully transferred to a clean tube. Cy-5 fluorescence in the supernatant was measured with a Molecular Devices SpectraMax M5 plate reader with an excitation wavelength of 640 nm and an emission wavelength of 680 nm. For competitive Chem-CLIP, F1-RIBOTAC was added to the folded the RNA and incubated at room temperature for 15 min prior to the addition of F1. Pull-down was then completed as described above.

QSOX1-a protein = QSOX1-a protein abundance by Western blotting in MDA-MB-231 cells; assay type: cell-based, human; conditions: 20 μM
Procedure: (§2) Measuring Protein Abundance by Western Blotting. MDA-MB-231 cells were seeded in 6-well plates at ˜50% confluency and treated with vehicle (DMSO) or compound as described above but without EU treatment. After 16 h, the compound-containing growth medium was removed and replaced with fresh medium containing compound (re-dosing). After an additional 32 h incubation, total protein was harvested (48 h total treatment time). The cells were then washed twice with cold 1×DPBS, and total protein was harvested by using Mammalian Protein Extraction Reagent (M-PER, Thermo Scientific) per the manufacturer's protocol. Protein concentration was quantified by using BCA Protein Assay Kit (Pierce), and the proteins were separated by using 10% SDS-polyacrylamide gel (20 μg protein per lane). After gel electrophoresis in 1× Running Buffer (50 mM MOPS, 50 mM Tris-base, pH 7.5, 1 mM EDTA, and 0.1% (w/v) SDS) at 120 V for 1 h, the proteins were transferred to a PVDF membrane (0.45 μm, Cytiva) at 300 mA for 1 h in 1× Transfer Buffer (25 mM Bicine, 25 mM Tris-base, pH 7.5, 1:4 MeOH:H2O). The membrane was blocked with 5% (w/v) non-fat dry milk in TBST (1×TBS containing 0.1% (v/v) Tween-20) for 1 h at room temperature. The primary antibody for QSOX1 protein (Cat #10092-932, Proteintech) or SQSTM1 protein (Cat #ab 109012, Abcam) was incubated with 1:1000 dilutions at 4° C. for 16 h. The membrane was then washed by TBST four times (5 min each) and then incubated with the secondary antibody (Cat #7074S, Cell Signaling) with 1:5000 dilution at room temperature for 2 h. The membrane was washed with TBST four times (5 min each) and imaged by using a SuperSignal West Pico Chemiluminescent Substrate (Pierce) per manufacturer's protocol. The blot was stripped by washing the membrane in 1× Stripping Buffer (200 mM glycine, pH 2.2, 4 mM SDS, 1% (v/v) Tween 20) at room temperature for 30 min, followed by blocking again as described above. […] Expression levels of proteins were quantified based on band intensity by using ImageJ. […]

SQSTM1 protein = SQSTM1 protein abundance by Western blotting in MDA-MB-231 cells; assay type: cell-based, human; conditions: F1-Amide 20 μM, F1-RIBOTAC 10 μM, 48 h
Procedure: as §2, with “temperature.” for “temperature. The primary antibody for QSOX1 protein (Cat #10092-932, Proteintech) or SQSTM1 protein (Cat #ab 109012, Abcam) was incubated with 1:1000 dilutions at 4° C. for 16 h. The membrane was then washed by TBST four times (5 min each) and then incubated with the secondary antibody (Cat #7074S, Cell Signaling) with 1:5000 dilution at room temperature for 2 h. The membrane was washed with TBST four times (5 min each) and imaged by using a SuperSignal West Pico Chemiluminescent Substrate (Pierce) per manufacturer's protocol. The blot was stripped by washing the membrane in 1× Stripping Buffer (200 mM glycine, pH 2.2, 4 mM SDS, 1% (v/v) Tween 20) at room temperature for 30 min, followed by blocking again as described above.”

MDA-MB-231 cells [5] = experiment: Invasion assay; assay type: cell-based, human; conditions: 48 h
Procedure: Invasion Assay. MDA-MB-231 cells were seeded in […] and treated with compound or transfected by ASO for 48 h as described in Cell Culture. After treatment for 48 h, the medium was replaced with fresh medium that contains same concentration of compound but lacking FBS for 8 h (serum starvation). ThinCert (GBO) 24-well inserts with 8 μm pores were coated with 100 μL of 0.5 mg/mL Matrigel (Fisher Scientific: CB40234) per well, and then cells were added into the insert (50,000 cells per well). Fresh growth medium with FBS was added to a 24-well plate (600 μL each well), and the inserts containing cells were placed on the top, allowing medium to cover the bottom of the insert. After 16 h, all medium was removed, and cells were washed by 1×DPBS twice. Cells were then fixed with 3% (w/v) paraformaldehyde (PFA) in 1×DPBS at room temperature for 30 min, followed by staining with Crystal Violet (10 mg/mL; 4:1H2O:MeOH) at room temperature for 20 min. A cotton swab was used to gently remove non-invasive cells on sitting on top of the Matrigel. The inserts were then imaged under a regular optical microscope (3 views per well), and the number of invasive cells were counted manually.

MDA-MB-231 cells [6] = experiment: Proliferation assay; assay type: cell-based, human; conditions: 48 h treatment
Procedure: Proliferation Assay. MDA-MB-231 cells were seeded in 96-well plates (Corning) at ˜40% confluency and treated with compound or transfected with ASO as described in Cell Culture. Compound was replenished every 16 h by replacing all the growth medium with freshly prepared medium containing same concentration of compounds. After 48 h total treatment period, proliferation was measured by using CellTiter 96 AQueous One Solution Cell Proliferation Assay (Cat #G3582, Promega) per manufacturer's protocol.

RNase L = biological target: T1, RNase L (Homo sapiens, UniProt Q05823); conditions: versus the RNase L recruiting module of F1-RIBOTAC; cited from earlier work
T1 sequence (Q05823 1-741): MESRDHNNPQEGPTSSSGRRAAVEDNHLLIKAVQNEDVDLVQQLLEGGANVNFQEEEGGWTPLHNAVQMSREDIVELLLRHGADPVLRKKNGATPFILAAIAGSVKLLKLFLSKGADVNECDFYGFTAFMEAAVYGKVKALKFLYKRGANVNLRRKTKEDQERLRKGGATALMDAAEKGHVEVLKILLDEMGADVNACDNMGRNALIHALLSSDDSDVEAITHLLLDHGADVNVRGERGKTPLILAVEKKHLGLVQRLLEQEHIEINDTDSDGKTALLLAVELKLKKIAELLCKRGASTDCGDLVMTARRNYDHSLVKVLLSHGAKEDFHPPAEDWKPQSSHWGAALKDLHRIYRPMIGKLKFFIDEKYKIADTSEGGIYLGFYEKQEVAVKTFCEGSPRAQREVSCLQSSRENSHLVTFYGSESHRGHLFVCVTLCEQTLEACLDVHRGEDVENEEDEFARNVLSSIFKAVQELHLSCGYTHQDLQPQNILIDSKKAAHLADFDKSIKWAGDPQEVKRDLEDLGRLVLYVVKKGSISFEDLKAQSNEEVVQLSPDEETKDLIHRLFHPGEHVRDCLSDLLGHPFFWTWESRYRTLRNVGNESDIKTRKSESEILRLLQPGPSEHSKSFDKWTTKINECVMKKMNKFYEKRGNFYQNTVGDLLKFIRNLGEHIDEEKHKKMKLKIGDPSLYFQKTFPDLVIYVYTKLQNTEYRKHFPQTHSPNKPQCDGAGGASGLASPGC

[7] = upon addition of small molecule

Row | Structure (SMILES) | Kd [1] | Tm of WT model RNA upon addition of compound ([2]; RNA alone 51.8) | ΔG37° C. of WT model RNA upon addition of compound ([2]; RNA alone −2.7) | decrease of DG°37 [2, 7] | increase of melting temperature (Tm) [2, 7] | effect on Tm or ΔG37° C. of mutant RNA [3] | competition of F1 cross-linking to the QSOX1-a target site (competitive Chem-CLIP) [4] | reduction of QSOX1-a protein (QSOX1-a protein) | effect on SQSTM1 protein levels (SQSTM1 protein) | effect on invasion (MDA-MB-231 cells [5]) | effect on proliferation of MDA-MB-231 cells (MDA-MB-231 cells [6]) | reduction of RNase L recruiting activity (RNase L)
1 | CCCNC(=O)CCC(=O)N(C)[C@H]1CC[C@@H](c2ccc(Cl)c(Cl)c2)c2ccccc21 [Compound F1-Amide] | 26 ± 9 µM | 53.7 °C | -3.0 kcal/mol | 0.3 kcal/mol | 1.9 °C | No significant effect | dose-dependently competed off | ~15% | Neither | no significant effect | dose-dependently reduced proliferation | 
2 | CCOC(=O)C1=C(Nc2ccccc2)S/C(=C\c2ccc(O)c(OCCOCCOCCOCCNC(=O)CCC(=O)N(C)[C@H]3CC[C@@H](c4ccc(Cl)c(Cl)c4)c4ccccc43)c2)C1=O [Compound F1-CTRL] | 10 ± 3 µM |  |  |  |  |  |  | ~15% |  | no significant effect |  | > 20 fold
